From patent US20250312344A1, “COMBINATION THERAPIES USING PRMT5 INHIBITORS AND IMMUNE CHECKPOINT INHIBITORS FOR THE TREATMENT OF CANCER” (MIRATI THERAPEUTICS, INC., priority 2024, published 2025) come the findings set out here.

The assay deals with murine syngeneic cancer model with a homozygous deletion of the Mtap gene (Mtap^DEL). The experiment in a line: MRTX1719 + immune checkpoint blockade combination study, tumor growth in Mtap^DEL syngeneic model. It is filed as in vivo, BALB/c mice. On the procedure: Immune-competent female BALB/c mice were implanted with murine syngeneic cancer model with a homozygous deletion of the Mtap gene (Mtap^DEL). Mouse health was monitored daily, and caliper measurements began when tumors were palpable. Tumor volume measurements were determined utilizing the formula 0.5×L×W2 in which L refers to length and W refers to width of each tumor. When tumors reached approximately 80 mm^3, animals were randomized to receive A) vehicle (0.5% methylcellulose (4000 cps)/0.2% Tween80 in water) and isotype control antibodies), B) immune checkpoint blockade antibodies targeting mouse-Ctla-4 and mouse-Pd-1 and vehicle, C) a PRMT5 inhibitor and isotype control antibodies, or D) the PRMT5 inhibitor and immune checkpoint blockade antibodies targeting mouse-Ctla-4 and mouse-Pd-1. Tumor volumes were measured two or three times per week (n=10/treatment group). Tumor Growth Inhibition (% TGI) was calculated using the formula: (1−(Final Drug Treated Tumor Volume−Initial Drug Treated Tumor Volume)/(Final Vehicle Treated Tumor Volume−Initial Vehicle Treated Tumor Volume))*100.
This example was conducted according to the study procedure described above. The PRMT5 inhibitor was MRTX1719 administered at 100 mg/kg once a day (QD). MRTX1719 used is as described herein.
The immune checkpoint antibody targeting mouse-Ctla-4 was dosed on Day 0 while the antibody targeting mouse-Pd-1 was dosed on Day 0, 3 and 6.

`Cn1ncc(-c2ccc3c(=O)[nH]nc(CN)c3c2)c1-c1c(F)c(Cl)cc(OC2CC2)c1C#N` [MRTX1719]: the Tumor volume amounted to 115 mm^3 (Study Day 1, MRTX1719 100 mg/kg QD, aCTLA-4 Day 0, aPD-1 Day 0, 3, 6); 118 mm^3 (Study Day 3, MRTX1719 100 mg/kg QD, aCTLA-4 Day 0, aPD-1 Day 0, 3, 6); 154 mm^3 (Study Day 6, MRTX1719 100 mg/kg QD, aCTLA-4 Day 0, aPD-1 Day 0, 3, 6); 182 mm^3 (Study Day 8, MRTX1719 100 mg/kg QD, aCTLA-4 Day 0, aPD-1 Day 0, 3, 6); 233 mm^3 (Study Day 10, MRTX1719 100 mg/kg QD, aCTLA-4 Day 0, aPD-1 Day 0, 3, 6); 352 mm^3 (Study Day 13, MRTX1719 100 mg/kg QD, aCTLA-4 Day 0, aPD-1 Day 0, 3, 6). The Tumor volume by setting is: (Study Day 15, MRTX1719 100 mg/kg QD, aCTLA-4 Day 0, aPD-1 Day 0, 3, 6) 558 mm^3; (Study Day 17, MRTX1719 100 mg/kg QD, aCTLA-4 Day 0, aPD-1 Day 0, 3, 6) 858 mm^3; (Study Day 20, MRTX1719 100 mg/kg QD, aCTLA-4 Day 0, aPD-1 Day 0, 3, 6) 1010 mm^3; (Study Day 22, MRTX1719 100 mg/kg QD, aCTLA-4 Day 0, aPD-1 Day 0, 3, 6) 1171 mm^3; (Study Day 24, MRTX1719 100 mg/kg QD, aCTLA-4 Day 0, aPD-1 Day 0, 3, 6) 1312 mm^3; (Study Day 27, MRTX1719 100 mg/kg QD, aCTLA-4 Day 0, aPD-1 Day 0, 3, 6) 1644 mm^3. The Tumor volume (Study Day −1 (before dosing), n=10/group) worked out at 82 mm^3. Moreover, the “% TGI (Day 17)” value (Tumor Growth Inhibition vs vehicle, Day 17, MRTX1719 100 mg/kg QD, aCTLA-4 Day 0, aPD-1 Day 0, 3, 6) worked out at 43.5%.
